This passage reports IC50 results from patent US20080015237A1 (ASTRAZENECA AB, priority 2006, published 2008).

Chain of human Kv1.5 channel (P22460 whole entry): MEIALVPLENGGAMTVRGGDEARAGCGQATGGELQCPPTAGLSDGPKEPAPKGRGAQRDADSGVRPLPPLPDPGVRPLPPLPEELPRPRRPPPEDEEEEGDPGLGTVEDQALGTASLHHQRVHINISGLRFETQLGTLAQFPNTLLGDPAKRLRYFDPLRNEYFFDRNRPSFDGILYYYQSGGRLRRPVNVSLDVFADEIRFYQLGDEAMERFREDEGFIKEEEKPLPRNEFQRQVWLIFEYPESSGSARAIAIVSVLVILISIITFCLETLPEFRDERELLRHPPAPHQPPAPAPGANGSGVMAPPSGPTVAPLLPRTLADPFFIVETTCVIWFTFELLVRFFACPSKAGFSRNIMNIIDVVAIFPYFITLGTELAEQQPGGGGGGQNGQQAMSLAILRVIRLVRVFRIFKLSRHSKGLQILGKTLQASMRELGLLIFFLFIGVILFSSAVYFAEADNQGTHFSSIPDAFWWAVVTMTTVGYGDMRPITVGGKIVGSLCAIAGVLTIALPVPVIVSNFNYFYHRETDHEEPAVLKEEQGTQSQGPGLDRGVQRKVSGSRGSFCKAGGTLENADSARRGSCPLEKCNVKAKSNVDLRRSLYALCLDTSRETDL

The test has as its target human Kv1.5 channel (Homo sapiens, UniProt P22460). Description: Test A: Rb+ efflux assay. The following applies: CHO cells stably transfected with cDNA for human Kv1.5. It counts as cell-based. As for the experimental part: This assay identifies compounds that block the human Kv1.5 channel potassium channel heterologously expressed in Chinese Hamster Ovary (CHO) cells by means of Rb+ ion efflux using Flame Atomic Absorption Spectroscopy. For experimental studies, CHO cells stably transfected with cDNA for human Kv1.5 were grown as confluent layers in Falcon, 384-well tissue culture-treated black-walled clear-bottomed plates and the plates were incubated overnight at 37° C. in a cell culture incubator.
After incubating overnight the cell plates were washed and a buffer containing Rb+ ions were added to the cell plates. The plates were then incubated for another 3-4 hours in a CO2-incubator (37° C.). Following this incubation period plates were washed, compounds were added and subsequently a buffer containing elevated K+ concentrations were added in order to activate the Kv1.5 channel. Following a short incubation time, aliquots of the supernatants were transferred to supernatant plates for subsequent determination of the Rb+ content using Atomic Absorption Spectrometry (ICR8000 instrument, Aurora Biomed Inc.).
In the case of `CCCNC(=O)C1c2ccccc2C(=O)N1CC(C)c1ccc(Cl)cc1` (stereo not shown) [2-[2-(4-chlorophenyl)propyl]-3-oxo-N-propylisoindoline-1-carboxamide], it took 1300 nM to reach half-maximal inhibition (IC50).
The figure for `CC(C)(C)NC(=O)C1c2cc(C#N)ccc2C(=O)N1Cc1ccccc1-c1ccccc1` (stereo not shown) [2-(biphenyl-2-ylmethyl)-N-(tert-butyl)-6-cyano-3-oxoisoindoline-1-carboxamide] is 2400 nM; for `CC(C)(C)NC(=O)C1c2ccccc2C(=O)N1Cc1ccccc1-c1ccc(F)c(F)c1` (single isomer, unassigned) [(1R or 1S)-N-(tert-butyl)-2-[(3′,4′-difluorobiphenyl-2-yl)methyl]-3-oxoisoindoline-1-carboxamide] it is 13000 nM.
Consider `O=C(NCCCC(F)(F)F)C1c2cc(Cl)ccc2C(=O)N1Cc1ccccc1-c1ccccc1` (stereo not shown) [2-(biphenyl-2-ylmethyl)-6-chloro-3-oxo-N-(4,4,4-trifluorobutyl)isoindoline-1-carboxamide], for which 610 nM corresponded to half-maximal inhibition (IC50).
With `CCCCNC(=O)C1c2cc(F)ccc2C(=O)N1CC(C)c1ccc(Cl)cc1` (single isomer, unassigned) [(1R or 1S)-N-butyl-2-[(2S or 2R)-2-(4-chlorophenyl)propyl]-6-fluoro-3-oxoisoindoline-1-carboxamide], the IC50 (as a rule, the concentration that inhibits the measured activity by half) amounted to 1700 nM.
For `CC(C)(C)NC(=O)C1c2ccccc2C(=O)N1Cc1ccccc1-c1ccc(F)cc1` (stereo not shown) [N-(tert-butyl)-2-[(4′-fluorobiphenyl-2-yl)methyl]-3-oxoisoindoline-1-carboxamide], the IC50 was found to be 7300 nM.
The figure for `O=C(NCc1ccccc1)C1c2cc(Cl)ccc2C(=O)N1Cc1ccccc1-c1ccccc1` (stereo not shown) [N-benzyl-2-(biphenyl-2-ylmethyl)-6-chloro-3-oxoisoindoline-1-carboxamide] is 420 nM; for `CC(C)(C)NC(=O)C1c2cc(Cl)ccc2C(=O)N1Cc1ccccc1-c1ccccc1` (stereo not shown) [2-(biphenyl-2-ylmethyl)-N-(tert-butyl)-6-chloro-3-oxoisoindoline-1-carboxamide] it is 1600 nM.
`CC(C)(CO)CN1C(=O)c2ccc(F)cc2C1C(=O)NCc1cccc(C(F)(F)F)c1` (stereo not shown) [6-fluoro-2-(3-hydroxy-2,2-dimethylpropyl)-3-oxo-N-[3-(trifluoromethyl)benzyl]isoindoline-1-carboxamide] showed a half-inhibitory concentration (IC50) of 1700 nM.
In the case of `O=C(NCc1ccc(CNC(=O)C2c3ccccc3C(=O)N2Cc2ccccc2-c2ccccc2)cc1)C(F)F` (stereo not shown) [2-(biphenyl-2-ylmethyl)-N-(4-{[(difluoroacetyl)amino]methyl}benzyl)-3-oxoisoindoline-1-carboxamide] it was 2400 nM.
In the case of `CC(CN1C(=O)c2ccccc2C1C(=O)NCc1ccc2c(c1)OC(F)(F)O2)c1ccc(Cl)cc1` (stereo not shown) [2-[2-(4-chlorophenyl)propyl]-N-[(2,2-difluoro-1,3-benzodioxol-5-yl)methyl]-3-oxoisoindoline-1-carboxamide] it was 580 nM; in that of `C[C@@H](c1ccccc1)N1C(=O)c2ccc(Cl)cc2C1C(=O)NCc1ccccc1` (stereo partly drawn) [N-benzyl-6-chloro-3-oxo-2-[(1S)-1-phenylethyl]isoindoline-1-carboxamide], 2200 nM.
In the case of `CCCNC(=O)C1c2cc(F)ccc2C(=O)N1CC(C)c1ccc(Cl)cc1` (stereo not shown) [2-[2-(4-chlorophenyl)propyl]-6-fluoro-3-oxo-N-propylisoindoline-1-carboxamide] it was 2300 nM; in that of `CN(C)c1ccc(CNC(=O)C2c3ccccc3C(=O)N2Cc2cc(C(F)(F)F)cc(C(F)(F)F)c2)cc1` (stereo not shown) [2-[3,5-bis(trifluoromethyl)benzyl]-N-[4-(dimethylamino)benzyl]-3-oxoisoindoline-1-carboxamide], 1800 nM; in that of `CC(CN1C(=O)c2ccc(Cl)cc2C1C(=O)NCc1ccccc1)c1ccc(Cl)cc1` (stereo not shown) [N-benzyl-6-chloro-2-[2-(4-chlorophenyl)propyl]-3-oxoisoindoline-1-carboxamide], 150 nM.
`Cn1nc(CN2C(=O)c3ccccc3C2C(=O)NC(C)(C)C)cc1-c1ccccc1` (stereo not shown) [N-(tert-butyl)-2-[(1-methyl-5-phenyl-1H-pyrazol-3-yl)methyl]-3-oxoisoindoline-1-carboxamide]: the IC50 worked out at 2500 nM.
The figure for `CC(C)(CO)CN1C(=O)c2ccc(Cl)cc2C1C(=O)NCc1cccc(OC(F)F)c1` (stereo not shown) [6-chloro-N-[3-(difluoromethoxy)benzyl]-2-(3-hydroxy-2,2-dimethylpropyl)-3-oxoisoindoline-1-carboxamide] is 410 nM; for `CC(c1ccccc1)N1C(=O)c2ccccc2C1C(=O)NCc1cccc(OC(F)F)c1` (stereo not shown) [N-[3-(difluoromethoxy)benzyl]-3-oxo-2-(1-phenylethyl)isoindoline-1-carboxamide] it is 2400 nM.
The figure for `O=C(NCc1ccccc1)C1c2cc(F)ccc2C(=O)N1Cc1ccccc1-c1ccccc1` (stereo not shown) [N-benzyl-2-(biphenyl-2-ylmethyl)-6-fluoro-3-oxoisoindoline-1-carboxamide] is 1000 nM; for `COc1ccc2c(c1OC)C(=O)N(CC(C)c1ccc(Cl)cc1)C2C(=O)NCc1ccccc1` (stereo not shown) [N-benzyl-2-[2-(4-chlorophenyl)propyl]-4,5-dimethoxy-3-oxoisoindoline-1-carboxamide] it is 610 nM; for `CC(CN1C(=O)c2ccc(Cl)cc2C1C(=O)NCc1ccc(C(F)(F)F)nc1)c1ccc(Cl)cc1` (stereo not shown) [6-chloro-2-[2-(4-chlorophenyl)propyl]-3-oxo-N-{[6-(trifluoromethyl)pyridin-3-yl]methyl}isoindoline-1-carboxamide] it is 420 nM.
For the compound `O=C(NCc1ccccc1)C1c2ccccc2C(=O)N1Cc1ccccc1-c1ccccc1` (stereo not shown) [N-benzyl-2-(biphenyl-2-ylmethyl)-3-oxoisoindoline-1-carboxamide], half-maximal inhibition (IC50) required 1000 nM.
In turn, `CN(Cc1ccccc1)C(=O)C1c2ccccc2C(=O)N1CCc1ccc(Cl)cc1` (stereo not shown) [N-benzyl-2-[2-(4-chlorophenyl)ethyl]-N-methyl-3-oxoisoindoline-1-carboxamide] gave a concentration for half-maximal inhibition (IC50) of 890 nM.
The figure for `CC(CN1C(=O)c2ccc(Cl)cc2C1C(=O)NCc1ccc(S(C)(=O)=O)cc1)c1ccc(Cl)cc1` (stereo not shown) [6-chloro-2-[2-(4-chlorophenyl)propyl]-N-[4-(methylsulfonyl)benzyl]-3-oxoisoindoline-1-carboxamide] is 2800 nM.
Regarding `O=C(NCc1ccc(C(F)(F)F)nc1)C1c2ccccc2C(=O)N1Cc1ccccc1-c1ccccc1` (stereo not shown) [2-(biphenyl-2-ylmethyl)-3-oxo-N-{[6-(trifluoromethyl)pyridin-3-yl]methyl}isoindoline-1-carboxamide], the IC50 was determined as 940 nM.
In turn, `CC(C)(C)NC(=O)C1c2ccccc2C(=O)N1Cc1ccccc1-c1ccc(F)c(F)c1` (single isomer, unassigned) [(1S or 1R)-N-(tert-butyl)-2-[(3′,4′-difluorobiphenyl-2-yl)methyl]-3-oxoisoindoline-1-carboxamide] showed an IC50 of 5500 nM.
The figure for `O=C(NCCCC(F)(F)F)C1c2cc(F)ccc2C(=O)N1Cc1ccccc1-c1ccccc1` (stereo not shown) [2-(biphenyl-2-ylmethyl)-6-fluoro-3-oxo-N-(4,4,4-trifluorobutyl)isoindoline-1-carboxamide] is 2700 nM; for `CC(C)(C)NC(=O)C1c2cc(Cl)ccc2C(=O)N1Cc1ccccc1C(F)(F)F` (stereo not shown) [N-(tert-butyl)-6-chloro-3-oxo-2-[2-(trifluoromethyl)benzyl]isoindoline-1-carboxamide] it is 1100 nM.
In the case of `Cc1c(O)ccc2c1C(=O)N(Cc1ccccc1-c1ccccc1)C2C(=O)NC(C)(C)C` (single isomer, unassigned) [(S or R) 2-(biphenyl-2-ylmethyl)-N-(tert-butyl)-5-hydroxy-4-methyl-3-oxoisoindoline-1-carboxamide] it was 17000 nM.
In the case of `CCCCNC(=O)C1c2cc(F)ccc2C(=O)N1CC(C)c1ccc(Cl)cc1` (single isomer, unassigned) [(1S or 1R)-N-butyl-2-[(2S or 2R)-2-(4-chlorophenyl)propyl]-6-fluoro-3-oxoisoindoline-1-carboxamide] it was 15000 nM; in that of `COc1cc2c(cc1OC)C(C(=O)NCc1ccccc1)N(CC(C)c1ccc(Cl)cc1)C2=O` (stereo not shown) [N-benzyl-2-[2-(4-chlorophenyl)propyl]-5,6-dimethoxy-3-oxoisoindoline-1-carboxamide], 740 nM; in that of `Cc1c(OCF)ccc2c1C(=O)N(Cc1ccccc1-c1ccccc1)C2C(=O)NC(C)(C)C` (stereo not shown) [2-(biphenyl-2-ylmethyl)-N-(tert-butyl)-5-(fluoromethoxy)-4-methyl-3-oxoisoindoline-1-carboxamide], 1700 nM.
In turn, `N#Cc1ccc(CNC(=O)C2c3ccccc3C(=O)N2Cc2ccccc2-c2ccccc2)cc1` (stereo not shown) [2-(biphenyl-2-ylmethyl)-N-(4-cyanobenzyl)-3-oxoisoindoline-1-carboxamide] came in with an IC50 of 2800 nM.
The figure for `CC(CN1C(=O)c2ccccc2C1C(=O)NCc1ccc(C(F)(F)F)nc1)c1ccc(Cl)cc1` (stereo not shown) [2-[2-(4-chlorophenyl)propyl]-3-oxo-N-{[6-(trifluoromethyl)pyridin-3-yl]methyl}isoindoline-1-carboxamide] is 780 nM.
In the case of `O=C(NCc1ccccc1)C1c2ccccc2C(=O)N1Cc1ccccc1Br` (stereo not shown) [N-benzyl-2-(2-bromobenzyl)-3-oxoisoindoline-1-carboxamide] it was 2500 nM.
For the compound `CC(C)(C)NC(=O)C1c2ccccc2C(=O)N1Cc1ccccc1C(F)(F)F` (stereo not shown) [N-(tert-butyl)-3-oxo-2-[2-(trifluoromethyl)benzyl]isoindoline-1-carboxamide], the IC50 stood at 1900 nM.
The compound `CC(C)(c1ccccc1)N1C(=O)c2ccccc2C1C(=O)NCc1ccccc1` (stereo not shown) [N-benzyl-2-(1-methyl-1-phenylethyl)-3-oxoisoindoline-1-carboxamide] yielded a concentration for half-maximal inhibition (IC50) of 1700 nM.
